Results as given in patent publication US7713971B2, “1,2,4-triazine derivatives, preparation and use thereof in human therapy” (Pierre Fabre Medicament, priority 2005, dated 2010).
pEC50: −log10 of the molar value.

Assays:
human PPARγ = biological target: T1, human PPARγ (Homo sapiens, UniProt P37231); assay: Reporter gene transactivation, hPPAR-GAL4 gamma; format: cell-based; conditions: transfected Cos-7 cells, Gal-4 luciferase reporter, 24 hours treatment
T1 construct: expressed in transfected cells; host or cells: Cos-7 cells (ATCC, CRL-1651)
T1 sequence (P37231 238-503 limits assumed): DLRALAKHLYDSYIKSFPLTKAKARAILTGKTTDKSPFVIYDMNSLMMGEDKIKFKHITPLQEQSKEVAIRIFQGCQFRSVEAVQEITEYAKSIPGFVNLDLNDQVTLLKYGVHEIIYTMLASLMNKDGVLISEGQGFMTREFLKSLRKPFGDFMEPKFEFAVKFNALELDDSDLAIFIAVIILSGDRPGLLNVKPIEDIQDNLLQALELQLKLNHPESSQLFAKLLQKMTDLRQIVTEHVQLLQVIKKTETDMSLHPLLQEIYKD

human PPARα = biological target: T2, human PPARα (Homo sapiens, UniProt Q07869); assay: Reporter gene transactivation, hPPAR-GAL4 alpha; format: cell-based; conditions: transfected Cos-7 cells, Gal-4 luciferase reporter, 24 hours treatment
T2 construct: expressed in transfected cells; host or cells: Cos-7 cells (ATCC, CRL-1651)
T2 sequence (Q07869 239-466 limits assumed): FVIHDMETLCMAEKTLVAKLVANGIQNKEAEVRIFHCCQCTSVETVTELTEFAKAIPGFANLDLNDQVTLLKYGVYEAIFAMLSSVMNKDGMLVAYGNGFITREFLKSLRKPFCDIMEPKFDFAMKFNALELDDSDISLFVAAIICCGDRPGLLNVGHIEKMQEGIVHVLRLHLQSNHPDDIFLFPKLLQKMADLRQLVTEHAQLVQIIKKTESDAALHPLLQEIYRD

| SMILES | pEC50 (human PPARγ) | pEC50 (human PPARα) |
| --- | --- | --- |
| CCCCn1c(=O)c(OCCCCCc2cccc(OC(C)(C)C(=O)O)c2)nn(C)c1=O [Example 12, 2-{3-[5-(4-Butyl-2-methyl-3,5-dioxo-2,3,4,5-tetrahydro-[1,2,4]triazin-6-yloxy)-pentyl]-phenoxy}-2-methyl-propionic Acid] | 5.52 to 6.00 | ~7.52 |
| CCCCCCCn1c(=O)c(OCCCCCc2cccc(OC(C)(C)C(=O)OCC)c2)nn(CCCC(F)(F)F)c1=O [Example 18, Ethyl 2-(3-{5-[4-heptyl-3,5-dioxo-2-(4,4,4-trifluoro-butyl)-2,3,4,5-tetrahydro-[1,2,4]triazin-6-yloxy]-pentyl}-phenoxy)-2-methyl-propionate] | ~6.00 | 7.00 to 7.52 |
| CCCCCCCn1c(=O)c(OCCCCCc2cccc(OC(C)(C)C(=O)OCC)c2)nn(Cc2ccccc2)c1=O [Example 19, Ethyl 2-{3-[5-(2-benzyl-4-heptyl-3,5-dioxo-2,3,4,5-tetrahydro-[1,2,4]triazin-6-yloxy)-pentyl]-phenoxy}-2-methyl-propionate] | 5.00 to 5.52 | ~5.52 |
| CCOC(=O)C(C)(C)Oc1ccc(CCCCOc2nn(C)c(=O)n(CCCC(F)(F)F)c2=O)cc1 [Example 30, Ethyl 2-methyl-2-(4-{4-[2-methyl-3,5-dioxo-4-(4,4,4-trifluoro-butyl)-2,3,4,5-tetrahydro-[1,2,4]triazin-6-yloxy]-butyl}-phenoxy)-propionate] | < 5.00 | 7.00 to 7.52 |
| CCCCCCCn1nc(OCCCOc2cccc(OC(C)(C)C(=O)OCC)c2)c(=O)n(C)c1=O [Example 33, Ethyl 2-{3-[3-(2-heptyl-4-methyl-3,5-dioxo-2,3,4,5-tetrahydro-[1,2,4]triazin-6-yloxy)-propoxy]-phenoxy}-2-methyl-propionate] | ~5.52 | ~5.52 |
| CCCCCCCn1nc(OCCCOc2cccc(SC(C)(C)C(=O)OCC)c2)c(=O)n(C)c1=O [Example 34, Ethyl 2-{3-[3-(2-heptyl-4-methyl-3,5-dioxo-2,3,4,5-tetrahydro-[1,2,4]triazin-6-yloxy)-propoxy]-phenylsulfanyl}-2-methyl-propionate] | < 5.00 | < 5.00 |
| CCCCCCCn1nc(OCCCCOc2cccc(OC(C)(C)C(=O)OCC)c2)c(=O)n(C)c1=O [Example 36, Ethyl 2-{3-[4-(2-heptyl-4-methyl-3,5-dioxo-2,3,4,5-tetrahydro-[1,2,4]triazin-6-yloxy)-butoxy]-phenoxy}-2-methyl-propionate] | 5.00 to 5.52 | 6.00 to 6.52 |
| CCCCCCCn1nc(OCCCCOc2cccc(SC(C)(C)C(=O)OCC)c2)c(=O)n(C)c1=O [Example 37, Ethyl 2-{3-[4-(2-heptyl-4-methyl-3,5-dioxo-2,3,4,5-tetrahydro-[1,2,4]triazin-6-yloxy)-butoxy]-phenylsulfanyl}-2-methyl-propionate] | ~5.00 | < 5.00 |
| CCCCCCCn1c(=O)c(NCCCCOc2ccc(OC(C)(C)C(=O)OCC)cc2)nn(C)c1=O [Example 50, Ethyl 2-{4-[4-(4-heptyl-2-methyl-3,5-dioxo-2,3,4,5-tetrahydro-[1,2,4]triazin-6-ylamino)-butoxy]-phenoxy}-2-methyl-propionate] | ~5.00 | < 5.00 |

Now from value to compound:

| pEC50 (human PPARγ) | pEC50 (human PPARα) | SMILES |
| --- | --- | --- |
| < 5.00 | < 5.00 | CCCCCCCn1nc(OCCOc2ccc(SC(C)(C)C(=O)OCC)cc2)c(=O)n(C)c1=O [Example 38, Ethyl 2-{4-[2-(2-heptyl-4-methyl-3,5-dioxo-2,3,4,5-tetrahydro-[1,2,4]triazin-6-yloxy)-ethoxy]-phenylsulfanyl}-2-methyl-propionate] |
| 5.00 to 5.52 | < 5.00 | CCOC(=O)C(C)(C)Oc1ccc(OCCCNc2nn(CCCC(F)(F)F)c(=O)n(C)c2=O)cc1 [Example 44, Ethyl 2-methyl-2-(4-{3-[4-methyl-3,5-dioxo-2-(4,4,4-trifluoro-butyl)-2,3,4,5-tetrahydro-[1,2,4]triazin-6-ylamino]-propoxy}-phenoxy)-propionate] |
| < 5.00 | < 5.00 | CCCCCCCn1c(=O)c(NCCCOc2ccc(SC(C)(C)C(=O)OCC)cc2)nn(C)c1=O [Example 49, Ethyl 2-{4-[3-(4-heptyl-2-methyl-3,5-dioxo-2,3,4,5-tetrahydro-[1,2,4]triazin-6-ylamino)-propoxy]-phenylsulfanyl}-2-methyl-propionate] |
| < 5.00 | 5.00 to 5.52 | CCCCCCCn1nc(N(CCCOc2cccc(OC(C)(C)C(=O)OCC)c2)CCCC(F)(F)F)c(=O)n(C)c1=O [Example 51, Ethyl 2-(3-{3-[(2-heptyl-4-methyl-3,5-dioxo-2,3,4,5-tetrahydro-[1,2,4]triazin-6-yl)-(4,4,4-trifluoro-butyl)-amino]-propoxy}-phenoxy)-2-methyl-propionate] |
| 5.52 to 6.00 | ~5.52 | CCCCCCCn1nc(NCCc2cccc(OC(C)(C)C(=O)OCC)c2)c(=O)n(C)c1=O [Example 57, Ethyl 2-{3-[2-(2-heptyl-4-methyl-3,5-dioxo-2,3,4,5-tetrahydro-[1,2,4]triazin-6-ylamino)-ethyl]-phenoxy}-2-methyl-propionate] |
| 5.00 to 5.52 | < 5.00 | CCCCCCCn1nc(NCCCc2cccc(OC(C)(C)C(=O)OCC)c2)c(=O)n(C)c1=O [Example 64, Ethyl 2-{3-[3-(2-heptyl-4-methyl-3,5-dioxo-2,3,4,5-tetrahydro-[1,2,4]triazin-6-ylamino)-propyl]-phenoxy}-2-methyl-propionate] |
| ~5.00 | 5.52 to 6.00 | CCCCCCCn1nc(NCCCc2cccc(OC(C)(C)C(=O)OCC)c2)c(=O)n(CCCCCCC)c1=O [Example 69, Ethyl 2-{3-[3-(2,4-diheptyl-3,5-dioxo-2,3,4,5-tetrahydro-[1,2,4]triazin-6-ylamino)-propyl]-phenoxy}-2-methyl-propionate] |
| ~5.00 | ~6.00 | CCCCCCCn1c(=O)c(NCCCc2cccc(OC(C)(C)C(=O)OCC)c2)nn(Cc2ccccc2)c1=O [Example 70, Ethyl 2-{3-[3-(2-benzyl-4-heptyl-3,5-dioxo-2,3,4,5-tetrahydro-[1,2,4]triazin-6-ylamino)-propyl]-phenoxy}-2-methyl-propionate] |
| ~6.00 | < 5.00 | CCCCCCCn1c(=O)c(NCCCCc2cccc(OC(C)(C)C(=O)OCC)c2)nn(CCC#N)c1=O [Example 86, Ethyl 2-(3-{4-[2-(2-cyano-ethyl)-4-heptyl-3,5-dioxo-2,3,4,5-tetrahydro-[1,2,4]triazin-6-ylamino]-butyl}-phenoxy)-2-methyl-propionate] |
| 6.52 to 7.00 | ~6.52 | CCCCCCCn1c(=O)c(NCCCCc2cccc(OC(C)(C)C(=O)OCC)c2)nn(C/C=C/C(=O)OCC)c1=O [Example 87, Ethyl 4-(6-{4-[3-(1-ethoxycarbonyl-1-methyl-ethoxy)-phenyl]-butylamino}-4-heptyl-3,5-dioxo-4,5-dihydro-3H-[1,2,4]triazin-2-yl)-but-2-enonate] |
| ~5.00 | ~6.52 | CCCCCCCn1nc(NCCCCc2cccc(OC(C)(C)C(=O)OCC)c2)c(=O)n(CCCCCCC)c1=O [Example 88, Ethyl 2-{3-[4-(2,4-diheptyl-3,5-dioxo-2,3,4,5-tetrahydro-[1,2,4]triazin-6-ylamino)-butyl]-phenoxy}-2-methyl-propionate] |
